# Laboratory results taken from ChEMBL document CHEMBL5214976, “Design, synthesis and anti-tumor activity studies of novel pyrido[3, 4-d]pyrimidine derivatives” (Bioorg Med Chem Lett, 2022).
# The source made the active and inactive calls. The rule behind the calls is not given here.
# Legend:
# MGC-803 [1] = experiment: Antitumor activity human MGC-803 cells assessed as inhibition of cell proliferation incubated for 72 hrs by MTT assay; assay type: functional, cell-based; details: MGC-803, 72 h
# HepG2 [2] = experiment: Antitumor activity human HepG2 cells assessed as inhibition of cell proliferation incubated for 72 hrs by MTT assay; assay type: functional, cell-based; details: HepG2, 72 h
# PC-3 = experiment: Antitumor activity against human PC-3 cells assessed as inhibition of cell proliferation incubated for 72 hrs by MTT assay; assay type: functional, cell-based; details: PC-3, 72 h
# MGC-803 [3] = experiment: Induction of apoptosis in human MGC-803 cells assessed as necrotic cells at 0.5 uM by Annexin V-FITC/PI staining based flow cytometric analysis (reference value: 0.4 %); assay type: functional
# MGC-803 [4] = experiment: Induction of apoptosis in human MGC-803 cells assessed as increase in Bid protein expression by Western blot analysis; assay type: functional, cell-based; details: dose 0.25-0.75 µM, DDE = dose-dependent effect
# MGC-803 [5] = experiment: Induction of cell cycle arrest in human MGC-803 cells assessed as accumulation of cells at G1/S phase by measuring decrease in CycD1 protein expression at 0.25 to 0.75 uM by Western blot analysis; assay type: functional, cell-based; details: dose 0.25-0.75 µM
# MGC-803 [6] = experiment: Induction of apoptosis in human MGC-803 cells assessed as viable cells at 0.25 uM by Annexin V-FITC/PI staining based flow cytometric analysis (reference value: 95.0 %); assay type: functional; details: read-out: Activity
# MGC-803 [7] = experiment: Induction of apoptosis in human MGC-803 cells assessed as total apoptotic cells at 0.75 uM by Annexin V-FITC/PI staining based flow cytometric analysis (reference value: 4.6%); assay type: functional
# MGC-803 [8] = experiment: Induction of apoptosis in human MGC-803 cells assessed as necrotic cells at 0.25 uM by Annexin V-FITC/PI staining based flow cytometric analysis (reference value: 0.4 %); assay type: functional
# MGC-803 [9] = experiment: Induction of apoptosis in human MGC-803 cells assessed as early apoptotic cells at 0.25 uM by Annexin V-FITC/PI staining based flow cytometric analysis (reference value: 1.8 %); assay type: functional
# MGC-803 [10] = experiment: Induction of apoptosis in human MGC-803 cells assessed as viable cells at 0.5 uM by Annexin V-FITC/PI staining based flow cytometric analysis (reference value: 95.0 %); assay type: functional; details: read-out: Activity
# MGC-803 [11] = experiment: Induction of apoptosis in human MGC-803 cells assessed as early apoptotic cells at 0.75 uM by Annexin V-FITC/PI staining based flow cytometric analysis (reference value: 1.8 %); assay type: functional
# MGC-803 [12] = experiment: Induction of apoptosis in human MGC-803 cells assessed as late apoptotic cells at 0.5 uM by Annexin V-FITC/PI staining based flow cytometric analysis (reference value: 2.8 %); assay type: functional
# MGC-803 [13] = experiment: Induction of apoptosis in human MGC-803 cells assessed as necrotic cells at 0.75 uM by Annexin V-FITC/PI staining based flow cytometric analysis (reference value: 0.4 %); assay type: functional
# MGC-803 [14] = experiment: Induction of apoptosis in human MGC-803 cells assessed as early apoptotic cells at 0.5 uM by Annexin V-FITC/PI staining based flow cytometric analysis (reference value: 1.8 %); assay type: functional
# MGC-803 [15] = experiment: Induction of apoptosis in human MGC-803 cells assessed as late apoptotic cells at 0.75 uM by Annexin V-FITC/PI staining based flow cytometric analysis (reference value: 2.8 %); assay type: functional
# MGC-803 [16] = experiment: Induction of apoptosis in human MGC-803 cells assessed as total apoptotic cells at 0.25 uM by Annexin V-FITC/PI staining based flow cytometric analysis (reference value: 4.6%); assay type: functional
# MGC-803 [17] = experiment: Induction of apoptosis in human MGC-803 cells assessed as increase in PARP protein expression by Western blot analysis; assay type: functional, cell-based; details: dose 0.25-0.75 µM, DDE = dose-dependent effect
# MGC-803 [18] = experiment: Induction of apoptosis in human MGC-803 cells assessed as viable cells at 0.75 uM by Annexin V-FITC/PI staining based flow cytometric analysis (reference value: 95.0 %); assay type: functional; details: read-out: Activity
# MGC-803 [19] = experiment: Induction of apoptosis in human MGC-803 cells assessed as late apoptotic cells at 0.25 uM by Annexin V-FITC/PI staining based flow cytometric analysis (reference value: 2.8 %); assay type: functional
# MGC-803 [20] = experiment: Induction of apoptosis in human MGC-803 cells assessed as total apoptotic cells at 0.5 uM by Annexin V-FITC/PI staining based flow cytometric analysis (reference value: 4.6%); assay type: functional
# MGC-803 [21] = experiment: Potency index, ratio of 5-fluorouracil IC50 to test compound IC50 for antiproliferative activity against human MGC-803 cells assessed as inhibition of cell proliferation incubated for 72 hrs by MTT assay; assay type: functional
# HepG2 [22] = experiment: Potency index, ratio of 5-fluorouracil IC50 to test compound IC50 for antiproliferative activity against human HepG2 cells assessed as inhibition of cell proliferation incubated for 72 hrs by MTT assay; assay type: functional
# MGC-803 [23] = experiment: Antiproliferative activity against human MGC-803 cells assessed as inhibition of cell proliferation incubated for 48 hrs by MTT assay; assay type: functional, cell-based; details: MGC-803, 48 h
SMILES,IC50 (MGC-803 [1]) [µM],IC50 (HepG2 [2]) [µM],IC50 (PC-3) [µM],also measured
O=c1[nH]cc(F)c(=O)[nH]1 [FLUOROURACIL],7.21,29.8,15.1,
C#CCSc1nc(Nc2ccccc2Cl)c2ccncc2n1,27.6,17.2,> 80,
C#CCSc1nc(N2CCOCC2)c2ccncc2n1,> 80,> 80,> 80,
C#CCSc1nc(Nc2ccc(O)cc2)c2ccncc2n1,> 80,> 80,> 80,
CCCSc1nc(Nc2cccc(OC)c2)c2ccncc2n1,1.95,17.3,15.3,
C#CCSc1nc(Nc2cccc(Cl)c2)c2ccncc2n1,2.19,1.09,56.5,
C#CCSc1nc(Nc2ccc(F)cc2)c2ccncc2n1,15.8,10.8,17.3,
C#CCSc1nc(Nc2ccccc2OC)c2ccncc2n1,3.44,4.53,> 80,
C#CCSc1nc(Nc2ccc([N+](=O)[O-])cc2)c2ccncc2n1,> 80,> 80,> 80,
C#CCSc1nc(N2CCN(C)CC2)c2ccncc2n1,> 80,> 80,> 80,
CCSc1nc(Nc2cccc(OC)c2)c2ccncc2n1,0.59,10.7,7.15,Activity (MGC-803 [3]): 0.5%; Activity (MGC-803 [4]): Dde; Activity (MGC-803 [5]): Active; viability at 0.25 µM (MGC-803 [6]): 90%; Activity (MGC-803 [7]): 75.7%; Activity (MGC-803 [8]): 0.2%; Activity (MGC-803 [9]): 6.8%; viability at 0.5 µM (MGC-803 [10]): 71.9%; Activity (MGC-803 [11]): 38.9%; Activity (MGC-803 [12]): 11.6%; Activity (MGC-803 [13]): 0.2%; Activity (MGC-803 [14]): 16%; Activity (MGC-803 [15]): 36.8%; Activity (MGC-803 [16]): 9.8%; Activity (MGC-803 [17]): Dde; viability at 0.75 µM (MGC-803 [18]): 24.1%; Activity (MGC-803 [19]): 3%; Activity (MGC-803 [20]): 27.6%
C#CCSc1nc(Nc2ccc(OC)cc2)c2ccncc2n1,> 80,> 80,15.1,
C#CCSc1nc(Nc2ccccc2O)c2ccncc2n1,21,> 80,18.7,
C/C=C/Sc1nc(Nc2cccc(OC)c2)c2ccncc2n1,1.03,18.1,6.79,
C#CCSc1nc(N2CCN(Cc3ccccc3)CC2)c2ccncc2n1,> 80,> 80,> 80,
COc1cccc(Nc2nc(SCC3CC3)nc3cnccc23)c1,1.34,24.9,14.8,

SMILES,IC50 (MGC-803 [1]) [µM],IC50 (HepG2 [2]) [µM],IC50 (PC-3) [µM],also measured
C#CCSc1nc(N2CCSCC2)c2ccncc2n1,> 80,> 80,> 80,
C#CCSc1nc(Nc2ccc(Cl)cc2)c2ccncc2n1,16.4,36.7,19,
C#CCSc1nc(Nc2cccc(OC)c2)c2ccncc2n1,2.07,0.92,17.1,Ratio IC50 (MGC-803 [21]): 3; Ratio IC50 (HepG2 [22]): 30
C#CCSc1nc(Nc2ccc(Cl)cc2Cl)c2ccncc2n1,25.5,11,30.4,
Cc1cc(Cc2nc(C)c3ccccc3n2)n2ncnc2n1,,,,IC50 (MGC-803 [23]): 8.28 µM
COc1cccc(Nc2nc(SCC3CCCCC3)nc3cnccc23)c1,23.7,32.8,27.5,
C#CCSc1nc(Nc2cc(OC)c(OC)c(OC)c2)c2ccncc2n1,5.68,14.2,30.7,
C#CCSc1nc(Nc2ccc(Br)cc2)c2ccncc2n1,26,56.2,26,
C#CCSc1nc(N2CCN(C(=O)OC(C)(C)C)CC2)c2ccncc2n1,> 80,55.9,47.5,
C#CCSc1nc(NCCC(C)C)c2ccncc2n1,> 80,> 80,> 80,
C#CCSc1nc(Nc2ccccc2)c2ccncc2n1,16.2,29.4,> 80,
C#CCSc1nc(Nc2ccc(C)cc2)c2ccncc2n1,8.09,6.17,15.7,
C#CCSc1nc(Nc2cccc(O)c2)c2ccncc2n1,15.7,29.5,> 80,
C#CCSc1nc(N2CCN(CC)CC2)c2ccncc2n1,70.6,> 80,> 80,
C#CCSc1nc(NCCC#N)c2ccncc2n1,> 80,> 80,> 80,
